≈ marks a conversion by molar mass, not a printed value. Like-named read-outs stand apart in the source and are kept apart here.
Key:
Format in all cases: physicochemical
[1] = Dynamic vapor sorption (DVS); conditions: for XRPD of the post-DVS material (form change): after DVS sorption/desorption cycle; for hygroscopicity, weight gain from 5-95% RH: summary statement; for weight change upon desorption: DVS desorption after sorption to 95% RH
Method: Dynamic vapor sorption (DVS) data are collected on a VTI SGA-100 Vapor Sorption Analyzer. NaCl and PVP are used as calibration standards. Samples are not dried prior to analysis. Sorption and desorption data are collected over a range from 5% to 95% relative humidity (RH) at 10% RH increments under a nitrogen purge. The equilibrium criterion used for analysis is less than 0.0100% weight change in 5 minutes with a maximum equilibration time of 3 hours. Data are not corrected for the initial moisture content of the samples.

[2] = Stressing at elevated relative humidity; conditions: ~97% RH for 7 days
Method: The kinetic and thermodynamic hygroscopicity of Form A is assessed by DVS and stressing at elevated RH, respectively.

[3] = Vacuum drying attempts of Form A
Method: Several attempts to dry Form A are tried. Rigorous conditions are initially selected due to the high temperature range at which the TGA weight loss is observed (above 90° C.). Drying under vacuum at 80° C. for 1 day results in brown solids stuck to the vial.
A drying attempt under milder conditions is attempted. The experiment begins by drying under vacuum at ambient temperature. […] Minor weight loss is noted after 6 hours at 63-65° C., so the sample is held in the vacuum oven at this temperature for 1 day, resulting in 11% gravimetric weight loss.

Solubility in water = test: Solubility in water
[4] = Hydrolysis in the solid state; conditions: reversion to N-[3,5-bis(trifluoromethyl)phenyl]-5-chloro-2-hydroxybenzamide
[5] = Slurry in water at room temperature, form by XRPD
Method: The slurry is repeated for 19 hours to gauge how quickly the conversion occurs and results again in Form N, indicating form conversion within 19 hours (starting material is the product from this example and from Example 21).

O=C(Nc1cc(C(F)(F)F)cc(C(F)(F)F)c1)c1cc(Cl)ccc1OP(=O)(O)O [Form A, 2-{[3,5-bis(trifluoromethyl)phenyl]carbamoyl}-4-chlorophenyl dihydrogen phosphate ethyl acetate solvate]
weight loss upon desorption between 95% and 5% RH ([1]; DVS desorption, 95% to 5% RH): 8.73%
moisture uptake between 5% and 95% RH ([1]; DVS sorption, 5% to 95% RH): 6.07 wt %
weight gain 5%-75% RH ([1]; DVS sorption, 5%-75% RH): 1.65%
weight gain 75%-95% RH ([1]; DVS sorption, 75%-95% RH): 4.42%
weight loss upon equilibration at 5% RH ([1]; DVS, initial equilibration at 5% RH): 0.76 wt %
XRPD of the post-DVS material (form change) [1]: change to a disordered unknown material
hygroscopicity, weight gain from 5-95% RH ([1]; DVS): ~6%
form after stressing at elevated relative humidity [2]: form change to a mixture of materials with a minor Form N (hydrate) component
gravimetric weight loss on drying ([3]; under vacuum at 80° C. for 1 day): 30%
gravimetric weight loss on drying ([3]; vacuum oven at 63-65° C. for 1 day): 11%
outcome of vacuum drying at elevated temperature ([3]; vacuum, elevated temperature): decomposition and collapse of the crystalline structure

O=C(Nc1cc(C(F)(F)F)cc(C(F)(F)F)c1)c1cc(Cl)ccc1OP(=O)([O-])[O-].[Na+].[Na+] [bis sodium salt, 2-((3,5-bis(trifluoromethyl)phenyl)carbamoyl)-4-chlorophenyl phosphate bis sodium salt]
solubility (Solubility in water; pH 8.5 water, pH 8.5, aqueous buffer, read-out: solubility in pH 8.5 water): 20 mg/mL
hydrolysis in the solid state [4]: 1 % per day

NCCO.NCCO.O=C(Nc1cc(C(F)(F)F)cc(C(F)(F)F)c1)c1cc(Cl)ccc1OP(=O)(O)O [bis ethanolamine salt, 2-((3,5-bis(trifluoromethyl)phenyl)carbamoyl)-4-chlorophenyl phosphate bis ethanolamine salt]
hydrolysis in the solid state [4]: 1 % per day

O=C(Nc1cc(C(F)(F)F)cc(C(F)(F)F)c1)c1cc(Cl)ccc1O [N-[3,5-bis(trifluoromethyl)phenyl]-5-chloro-2-hydroxybenzamide]
solubility (Solubility in water; water, read-out: solubility in water): 0.003 mg/mL (≈ 7.82 µM)

O=C(Nc1cc(C(F)(F)F)cc(C(F)(F)F)c1)c1cc(Cl)ccc1OP(=O)([O-])O.[Na+] [mono sodium salt, 2-((3,5-bis(trifluoromethyl)phenyl)carbamoyl)-4-chlorophenyl hydrogen phosphate mono sodium salt]
hydrolysis in the solid state [4]: 1 % per day

O=C(Nc1cc(C(F)(F)F)cc(C(F)(F)F)c1)c1cc(Cl)ccc1OP(=O)(O)O [Form N, 2-{[3,5-bis(trifluoromethyl)phenyl]carbamoyl}-4-chlorophenyl dihydrogen phosphate hydrate]
weight change upon desorption [1]: All of this weight is lost
weight gain upon sorption from 5% to 95% relative humidity ([1]; DVS sorption, 5% to 95% RH, phosphate hydrate): 3 weight %
weight loss upon equilibration to 5% relative humidity ([1]; DVS, initial equilibration to 5% RH, residual water likely): 30%
XRPD of the post-DVS material (form change) ([1]; phosphate hydrate): no form change
hygroscopicity, weight gain from 5-95% RH ([1]; DVS, phosphate hydrate): ~3%

O=C(Nc1cc(C(F)(F)F)cc(C(F)(F)F)c1)c1cc(Cl)ccc1OP(=O)(O)O [Form B, 2-{[3,5-bis(trifluoromethyl)phenyl]carbamoyl}-4-chlorophenyl dihydrogen phosphate]
weight change upon desorption [1]: All of this weight is lost
weight gain upon sorption from 5% to 95% relative humidity ([1]; DVS sorption, 5% to 95% RH): 0.6 weight %
weight loss at 5% relative humidity ([1]; DVS, 5% RH): 0.04 weight %
XRPD of the post-DVS material (form change) [1]: no form change
hygroscopicity, weight gain from 5-95% RH ([1]; DVS): ~0.6%
form after stressing at elevated relative humidity [2]: partial conversion to Form N
time for form conversion to Form N in water slurry [5]: ≤ 19 h
form after slurrying with water ([5]; 7 days, vacuum filtered): converts to Form N

Source: patent publication US12091431B2, “Crystals” (AEROMICS, INC., priority 2016, dated 2024)
